In patent US20170107179A1 (Tetraphase Pharmaceuticals, Inc., priority 2010, published 2017):
Values after ≈ are worked out from the molar mass of the structure shown. Where two headings read alike, the source gives them in different places.

Columns and labels:
S. aureus Smith = assay: Mouse systemic infection (septicemia) model, CD-1 mice; conditions: Staphylococcus aureus, in Mus musculus, 48 h; for responders at 3 mg/kg: iv, read-out: Percent survival at 48 hours, IV (3 mg/kg); for responders at 30 mg/kg: po, read-out: Percent survival at 48 hours, PO (30 mg/kg)
[1] = tested on: Gram-negative and Gram-positive organisms (clinical isolates); assay: Broth microdilution MIC against clinical isolates (CLSI M7-A8), Table 9; type: cell-based
[2] = Klebsiella aerogenes, Enterobacter aerogenes, n=30
[3] = Klebsiella pneumoniae, Klebsiella pneumonia, n=27
[4] = Staphylococcus aureus, Staphylococcus aureus (MRSA PVL+), n=30, read-out: MIC50
[5] = Staphylococcus aureus, Staphylococcus aureus (MRSA PVL+), n=30, read-out: MIC90
[6] = Staphylococcus aureus, Staphylococcus aureus MRSA (includes MRSA PVL+ group), n=105, read-out: MIC50
[7] = Staphylococcus aureus, Staphylococcus aureus MRSA (includes MRSA PVL+ group), n=105, read-out: MIC90
[8] = Stenotrophomonas maltophilia, n=29
[9] = Streptococcus intermedius, n=30
[10] = Streptococcus sanguis, n=18, read-out: MIC50
[11] = Streptococcus sanguis, n=18, read-out: MIC90

SMILES: CC[C@H](C)N1Cc2c(O)c3c(c(F)c2C1)C[C@H]1C[C@H]2[C@H](N(C)C)C(O)=C(C(N)=O)C(=O)[C@@]2(O)C(O)=C1C3=O [Compound 123]
- responders at 3 mg/kg (S. aureus Smith): 33%
- responders at 30 mg/kg (S. aureus Smith): 67%

SMILES: CN(C)c1c2c(c(O)c3c1C[C@H]1C[C@H]4[C@H](N(C)C)C(O)=C(C(N)=O)C(=O)[C@@]4(O)C(O)=C1C3=O)CN(C(C)(C)C)C2 [Compound 115]
- responders at 3 mg/kg (S. aureus Smith): 100%
- responders at 30 mg/kg (S. aureus Smith): 100%

SMILES: CCC(C)(C)N1Cc2c(O)c3c(c(Cl)c2C1)C[C@H]1C[C@H]2[C@H](N(C)C)C(O)=C(C(N)=O)C(=O)[C@@]2(O)C(O)=C1C3=O [Compound 150]
- responders at 3 mg/kg (S. aureus Smith): 0%
- responders at 30 mg/kg (S. aureus Smith): 0%

SMILES: C[C@@H]1C(=O)Nc2c(O)c3c(c(F)c2CN1C)C[C@H]1C[C@H]2[C@H](N(C)C)C(O)=C(C(N)=O)C(=O)[C@@]2(O)C(O)=C1C3=O [Compound 406]
- responders at 3 mg/kg (S. aureus Smith): 100%
- responders at 30 mg/kg (S. aureus Smith): 40%

SMILES: CN(C)[C@@H]1C(O)=C(C(N)=O)C(=O)[C@@]2(O)C(O)=C3C(=O)c4c(O)c5c(c(C(F)(F)F)c4C[C@H]3C[C@@H]12)CN(C(C)(C)C)C5 [Compound 112]
- responders at 3 mg/kg (S. aureus Smith): 100%
- responders at 30 mg/kg (S. aureus Smith): 20%

SMILES: C[C@H]1COc2c(N3CCN(C)CC3)c(F)cc3c(=O)c(C(=O)O)cn1c23 [Levofloxacin, levofloxacin]
- MIC50 ([1]; Acinetobacter lwoffii, n=29, read-out: MIC50): ≤ 0.25 µg/mL
- MIC90 ([1]; Acinetobacter lwoffii, n=29, read-out: MIC90): ≤ 0.25 µg/mL
- MIC50 ([1]; Enterobacter cloacae, n=29): 1 µg/mL (≈ 2.77 µM)
- MIC90 ([1]; Enterobacter cloacae, n=29): > 4 µg/mL
- MIC50 ([1]; Escherichia coli, n=40): ≤ 0.25 µg/mL
- MIC90 ([1]; Escherichia coli, n=40): > 4 µg/mL
- MIC50 ([1]; Kiebsielia oxytoca, n=30): ≤ 0.25 µg/mL
- MIC90 ([1]; Kiebsielia oxytoca, n=30): 4 µg/mL (≈ 11.1 µM)
- MIC50 [1, 2]: ≤ 0.25 µg/mL
- MIC90 [1, 2]: ≤ 0.25 µg/mL
- MIC50 [1, 3]: 1 µg/mL (≈ 2.77 µM)
- MIC90 [1, 3]: > 4 µg/mL
- MIC50 ([1]; Morganella morganii, n=30): ≤ 0.25 µg/mL
- MIC90 ([1]; Morganella morganii, n=30): 4 µg/mL (≈ 11.1 µM)
- MIC50 ([1]; Proteus vulgaris, n=29): ≤ 0.25 µg/mL
- MIC90 ([1]; Proteus vulgaris, n=29): 1 µg/mL (≈ 2.77 µM)
- MIC50 ([1]; Salmonella species, n=30, read-out: MIC50): ≤ 0.25 µg/mL
- MIC90 ([1]; Salmonella species, n=30, read-out: MIC90): ≤ 0.25 µg/mL
- MIC50 ([1]; Serratia marcescens, n=30): ≤ 0.25 µg/mL
- MIC90 ([1]; Serratia marcescens, n=30): 2 µg/mL (≈ 5.53 µM)
- MIC90 ([1]; Shigella species, n=30, read-out: MIC90): 0.5 µg/mL (≈ 1.38 µM)
- MIC50 [1, 4]: 0.25 µg/mL (≈ 0.692 µM)
- MIC90 [1, 5]: > 2 µg/mL
- MIC50 [1, 6]: > 2 µg/mL
- MIC90 [1, 7]: > 2 µg/mL
- MIC50 [1, 8]: 0.5 µg/mL (≈ 1.38 µM)
- MIC90 [1, 8]: > 4 µg/mL
- MIC50 ([1]; Streptococcus anginosus, n=20): 0.5 µg/mL (≈ 1.38 µM)
- MIC90 ([1]; Streptococcus anginosus, n=20): 0.5 µg/mL (≈ 1.38 µM)
- MIC50 [1, 9]: 1 µg/mL (≈ 2.77 µM)
- MIC90 [1, 9]: 2 µg/mL (≈ 5.53 µM)
- MIC50 ([1]; Streptococcus mitis, n=29): 1 µg/mL (≈ 2.77 µM)
- MIC90 ([1]; Streptococcus mitis, n=29): 2 µg/mL (≈ 5.53 µM)
- MIC50 [1, 10]: 0.5 µg/mL (≈ 1.38 µM)
- MIC90 [1, 11]: 2 µg/mL (≈ 5.53 µM)

SMILES: CC(C)[C@@H](C)N1Cc2c(O)c3c(c(F)c2C1)C[C@H]1C[C@H]2[C@H](N(C)C)C(O)=C(C(N)=O)C(=O)[C@@]2(O)C(O)=C1C3=O [Compound 106]
- responders at 3 mg/kg (S. aureus Smith): 17%
- responders at 30 mg/kg (S. aureus Smith): 20%

SMILES: CC(C)C[C@H]1NCc2c(F)c3c(c(O)c2NC1=O)C(=O)C1=C(O)[C@]2(O)C(=O)C(C(N)=O)=C(O)[C@@H](N(C)C)[C@@H]2C[C@@H]1C3 [Compound 419]
- responders at 3 mg/kg (S. aureus Smith): 100%
- responders at 30 mg/kg (S. aureus Smith): 40%

SMILES: CC(C)N1Cc2c(O)c3c(c(F)c2C1)C[C@H]1C[C@H]2[C@H](N(C)C)C(O)=C(C(N)=O)C(=O)[C@@]2(O)C(O)=C1C3=O [Compound 143]
- responders at 3 mg/kg (S. aureus Smith): 83%
- responders at 30 mg/kg (S. aureus Smith): 100%

SMILES: CCCN1CCc2c(O)c3c(c(F)c2C1)C[C@H]1C[C@H]2[C@H](N(C)C)C(O)=C(C(N)=O)C(=O)[C@@]2(O)C(O)=C1C3=O [Compound 304]
- responders at 3 mg/kg (S. aureus Smith): 0%
- responders at 30 mg/kg (S. aureus Smith): 17%

SMILES: CCC[C@@H]1C[C@@H](C(=O)N[C@@H]([C@H]2O[C@H](SC)[C@H](O)[C@@H](O)[C@H]2O)[C@H](C)Cl)N(C)C1 [Clindamycin]
- MIC50 [1]: 0.03 µg/mL (≈ 0.0706 µM)
- MIC90 [1]: 0.06 µg/mL (≈ 0.141 µM)
- MIC50 [1, 4]: 0.06 µg/mL (≈ 0.141 µM)
- MIC90 [1, 5]: 0.12 µg/mL (≈ 0.282 µM)
- MIC50 ([1]; Streptococcus anginosus, n=20): ≤ 0.015 µg/mL
- MIC90 ([1]; Streptococcus anginosus, n=20): 0.03 µg/mL (≈ 0.0706 µM)
- MIC50 [1, 9]: ≤ 0.015 µg/mL
- MIC90 [1, 9]: 0.06 µg/mL (≈ 0.141 µM)
- MIC50 ([1]; Streptococcus mitis, n=29): 0.03 µg/mL (≈ 0.0706 µM)
- MIC90 ([1]; Streptococcus mitis, n=29): 0.06 µg/mL (≈ 0.141 µM)

SMILES: CN[C@H](CC(C)C)C(=O)N[C@H]1C(=O)N[C@@H](CC(N)=O)C(=O)N[C@H]2C(=O)N[C@H]3C(=O)N[C@H](C(=O)N[C@H](C(=O)O)c4cc(O)cc(O)c4-c4cc3ccc4O)[C@H](O)c3ccc(c(Cl)c3)Oc3cc2cc(c3O[C@@H]2O[C@H](CO)[C@@H](O)[C@H](O)[C@H]2O[C@H]2C[C@](C)(N)[C@H](O)[C@H](C)O2)Oc2ccc(cc2Cl)[C@H]1O [Vancomycin, vancomycin]
- MIC50 ([1]; Staphylococcus aureus (MRSA PVL+), n=30, read-out: MIC50): 1 µg/mL (≈ 0.69 µM)
- MIC90 [1, 5]: 1 µg/mL (≈ 0.69 µM)
- MIC50 [1, 6]: 1 µg/mL (≈ 0.69 µM)
- MIC90 [1, 7]: 1 µg/mL (≈ 0.69 µM)
- MIC50 ([1]; Streptococcus anginosus, n=20, read-out: MIC50): 0.5 µg/mL (≈ 0.345 µM)
- MIC90 ([1]; Streptococcus anginosus, n=20, read-out: MIC90): 0.5 µg/mL (≈ 0.345 µM)
- MIC50 ([1]; Streptococcus intermedius, n=30, read-out: MIC50): 0.5 µg/mL (≈ 0.345 µM)
- MIC90 ([1]; Streptococcus intermedius, n=30, read-out: MIC90): 0.5 µg/mL (≈ 0.345 µM)
- MIC50 ([1]; Streptococcus mitis, n=29, read-out: MIC50): 0.5 µg/mL (≈ 0.345 µM)
- MIC90 ([1]; Streptococcus mitis, n=29, read-out: MIC90): 0.5 µg/mL (≈ 0.345 µM)
- MIC50 [1, 10]: 0.5 µg/mL (≈ 0.345 µM)
- MIC90 [1, 11]: 1 µg/mL (≈ 0.69 µM)
